According to ChEMBL document CHEMBL3991601, “The target landscape of clinical kinase drugs” (Science, 2017):
Activity calls are given as the source filed them.

Key:
[1] = biological target: ATP-dependent RNA helicase DDX3X (Homo sapiens, UniProt O00571)
Activin receptor type-2B = Activin receptor type-2B (Homo sapiens, UniProt Q13705)
[2] = biological target: cAMP-dependent protein kinase type II-alpha regulatory subunit (Homo sapiens, UniProt P13861)
[3] = biological target: Bone morphogenetic protein receptor type-1B (Homo sapiens, UniProt O00238)
Sequence of Bone morphogenetic protein receptor type-1B (O00238 whole entry): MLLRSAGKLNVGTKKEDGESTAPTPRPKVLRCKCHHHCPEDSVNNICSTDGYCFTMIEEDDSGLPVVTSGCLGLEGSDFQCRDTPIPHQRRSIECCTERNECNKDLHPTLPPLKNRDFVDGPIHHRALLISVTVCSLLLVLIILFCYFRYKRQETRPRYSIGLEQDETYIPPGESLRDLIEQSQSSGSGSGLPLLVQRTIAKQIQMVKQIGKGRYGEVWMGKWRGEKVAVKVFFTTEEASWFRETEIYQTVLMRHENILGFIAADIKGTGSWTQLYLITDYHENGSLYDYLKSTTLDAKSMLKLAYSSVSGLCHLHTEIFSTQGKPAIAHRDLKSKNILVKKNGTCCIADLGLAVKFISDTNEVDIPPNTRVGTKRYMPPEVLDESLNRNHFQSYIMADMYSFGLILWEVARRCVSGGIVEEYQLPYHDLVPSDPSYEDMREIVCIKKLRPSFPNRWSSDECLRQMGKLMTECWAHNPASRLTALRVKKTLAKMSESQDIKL

[4] = biological target: T1, Bifunctional phosphoribosylaminoimidazole carboxylase/phosphoribosylaminoimidazole succinocarboxamide synthetase (Homo sapiens, UniProt P22234)
T1 sequence (P22234 whole entry): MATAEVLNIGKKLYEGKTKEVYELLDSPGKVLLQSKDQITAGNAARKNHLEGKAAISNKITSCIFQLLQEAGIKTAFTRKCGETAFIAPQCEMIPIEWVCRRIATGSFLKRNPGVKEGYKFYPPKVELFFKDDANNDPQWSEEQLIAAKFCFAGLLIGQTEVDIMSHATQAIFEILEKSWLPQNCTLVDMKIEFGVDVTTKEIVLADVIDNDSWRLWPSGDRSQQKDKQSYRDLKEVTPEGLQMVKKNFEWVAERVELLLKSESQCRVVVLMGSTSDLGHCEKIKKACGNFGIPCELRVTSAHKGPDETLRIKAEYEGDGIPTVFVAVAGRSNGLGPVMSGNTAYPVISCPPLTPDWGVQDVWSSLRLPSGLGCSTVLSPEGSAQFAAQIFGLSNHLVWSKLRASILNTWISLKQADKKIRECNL

[5] = biological target: Platelet-derived growth factor receptor beta (Homo sapiens, UniProt P09619)
Sequence of Platelet-derived growth factor receptor beta (P09619 whole entry): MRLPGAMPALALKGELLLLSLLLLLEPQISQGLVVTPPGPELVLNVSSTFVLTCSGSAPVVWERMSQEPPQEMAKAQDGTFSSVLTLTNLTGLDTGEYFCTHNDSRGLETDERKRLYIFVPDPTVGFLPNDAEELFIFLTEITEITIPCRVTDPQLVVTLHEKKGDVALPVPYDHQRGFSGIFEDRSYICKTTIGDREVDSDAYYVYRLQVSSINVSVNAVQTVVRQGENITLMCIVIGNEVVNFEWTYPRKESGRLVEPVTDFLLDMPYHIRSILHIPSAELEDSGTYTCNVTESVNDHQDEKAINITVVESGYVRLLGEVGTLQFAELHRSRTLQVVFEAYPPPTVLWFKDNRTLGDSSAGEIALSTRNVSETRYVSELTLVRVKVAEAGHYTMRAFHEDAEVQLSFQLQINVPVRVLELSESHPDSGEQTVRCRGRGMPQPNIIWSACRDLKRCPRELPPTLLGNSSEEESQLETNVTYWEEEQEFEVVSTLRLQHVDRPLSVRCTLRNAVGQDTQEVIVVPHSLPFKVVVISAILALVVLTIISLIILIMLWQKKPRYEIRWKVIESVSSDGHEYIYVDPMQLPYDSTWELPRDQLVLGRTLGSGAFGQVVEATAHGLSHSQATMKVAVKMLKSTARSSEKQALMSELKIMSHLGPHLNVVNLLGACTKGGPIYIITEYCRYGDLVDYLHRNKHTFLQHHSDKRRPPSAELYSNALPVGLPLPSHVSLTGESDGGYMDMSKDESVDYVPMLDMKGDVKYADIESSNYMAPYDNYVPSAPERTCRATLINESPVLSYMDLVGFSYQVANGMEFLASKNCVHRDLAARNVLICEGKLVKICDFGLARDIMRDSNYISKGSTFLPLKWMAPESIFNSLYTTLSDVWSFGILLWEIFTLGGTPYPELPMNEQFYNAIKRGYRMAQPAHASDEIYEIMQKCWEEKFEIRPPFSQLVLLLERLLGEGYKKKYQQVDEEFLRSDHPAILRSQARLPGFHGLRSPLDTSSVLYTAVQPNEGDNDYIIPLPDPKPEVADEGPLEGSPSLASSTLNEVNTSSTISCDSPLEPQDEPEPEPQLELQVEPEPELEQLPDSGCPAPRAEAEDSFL

[6] = biological target: T2, Serine/threonine-protein kinase NLK (Homo sapiens, UniProt Q9UBE8)
T2 sequence (Q9UBE8 whole entry): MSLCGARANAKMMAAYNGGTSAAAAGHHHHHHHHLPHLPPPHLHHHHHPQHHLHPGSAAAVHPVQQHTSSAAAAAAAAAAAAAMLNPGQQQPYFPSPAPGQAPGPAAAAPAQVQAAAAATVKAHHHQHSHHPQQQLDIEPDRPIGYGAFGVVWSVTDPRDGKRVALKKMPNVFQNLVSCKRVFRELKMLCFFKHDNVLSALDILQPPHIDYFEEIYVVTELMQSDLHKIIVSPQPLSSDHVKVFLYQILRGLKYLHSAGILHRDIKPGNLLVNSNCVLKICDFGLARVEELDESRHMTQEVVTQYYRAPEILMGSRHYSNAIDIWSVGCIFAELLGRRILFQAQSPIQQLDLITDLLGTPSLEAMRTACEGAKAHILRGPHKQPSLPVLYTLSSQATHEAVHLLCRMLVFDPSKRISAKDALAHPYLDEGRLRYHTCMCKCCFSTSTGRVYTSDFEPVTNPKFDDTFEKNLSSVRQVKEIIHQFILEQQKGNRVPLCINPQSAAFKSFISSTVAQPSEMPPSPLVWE

[7] = biological target: T3, Tyrosine--tRNA ligase, cytoplasmic (Homo sapiens, UniProt P54577)
T3 sequence (P54577 whole entry): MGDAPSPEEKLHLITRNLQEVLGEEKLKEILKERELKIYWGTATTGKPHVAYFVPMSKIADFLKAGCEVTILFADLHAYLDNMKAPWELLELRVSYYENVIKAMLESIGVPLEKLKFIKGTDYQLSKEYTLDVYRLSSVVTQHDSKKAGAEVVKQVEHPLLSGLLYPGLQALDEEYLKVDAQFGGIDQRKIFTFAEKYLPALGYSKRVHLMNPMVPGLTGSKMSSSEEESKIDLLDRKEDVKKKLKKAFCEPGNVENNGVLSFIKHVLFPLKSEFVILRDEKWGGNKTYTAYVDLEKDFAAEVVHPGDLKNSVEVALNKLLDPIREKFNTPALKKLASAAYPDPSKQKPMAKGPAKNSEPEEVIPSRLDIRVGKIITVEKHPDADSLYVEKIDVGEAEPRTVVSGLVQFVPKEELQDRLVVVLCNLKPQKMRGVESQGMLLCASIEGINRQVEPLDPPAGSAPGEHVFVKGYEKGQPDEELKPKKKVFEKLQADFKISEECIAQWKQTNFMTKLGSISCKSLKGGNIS

Scaffold protein ILK = biological target: T4, Scaffold protein ILK (Homo sapiens, UniProt Q13418)
T4 sequence (Q13418 whole entry): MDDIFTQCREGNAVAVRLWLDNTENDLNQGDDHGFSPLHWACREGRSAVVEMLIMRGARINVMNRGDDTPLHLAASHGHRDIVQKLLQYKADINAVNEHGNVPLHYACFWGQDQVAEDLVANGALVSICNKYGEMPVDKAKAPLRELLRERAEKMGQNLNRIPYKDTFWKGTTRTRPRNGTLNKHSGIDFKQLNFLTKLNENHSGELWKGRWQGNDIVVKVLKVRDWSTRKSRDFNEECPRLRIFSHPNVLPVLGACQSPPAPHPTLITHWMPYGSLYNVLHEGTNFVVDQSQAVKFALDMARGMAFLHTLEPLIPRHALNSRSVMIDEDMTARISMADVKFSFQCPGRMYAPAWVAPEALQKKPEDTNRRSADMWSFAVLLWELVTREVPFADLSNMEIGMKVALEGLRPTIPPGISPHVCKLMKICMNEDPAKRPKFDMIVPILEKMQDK

[8] = biological target: Protein-tyrosine kinase 6 (Homo sapiens, UniProt Q13882)
Sequence of Protein-tyrosine kinase 6 (Q13882 whole entry): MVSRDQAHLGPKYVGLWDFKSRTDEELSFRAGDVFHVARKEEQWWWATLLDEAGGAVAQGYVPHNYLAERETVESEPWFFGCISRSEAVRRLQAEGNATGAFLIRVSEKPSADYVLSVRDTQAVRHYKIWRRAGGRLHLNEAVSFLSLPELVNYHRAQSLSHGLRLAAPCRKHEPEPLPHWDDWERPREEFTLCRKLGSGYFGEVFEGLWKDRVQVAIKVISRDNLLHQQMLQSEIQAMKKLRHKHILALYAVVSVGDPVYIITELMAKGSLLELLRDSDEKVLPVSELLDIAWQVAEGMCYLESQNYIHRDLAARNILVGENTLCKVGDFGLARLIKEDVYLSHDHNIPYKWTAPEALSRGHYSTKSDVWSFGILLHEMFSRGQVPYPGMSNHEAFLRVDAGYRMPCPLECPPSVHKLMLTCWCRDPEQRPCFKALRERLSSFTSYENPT

[9] = biological target: Ribosomal protein S6 kinase alpha-3 (Homo sapiens, UniProt P51812)
Sequence of Ribosomal protein S6 kinase alpha-3 (P51812 whole entry): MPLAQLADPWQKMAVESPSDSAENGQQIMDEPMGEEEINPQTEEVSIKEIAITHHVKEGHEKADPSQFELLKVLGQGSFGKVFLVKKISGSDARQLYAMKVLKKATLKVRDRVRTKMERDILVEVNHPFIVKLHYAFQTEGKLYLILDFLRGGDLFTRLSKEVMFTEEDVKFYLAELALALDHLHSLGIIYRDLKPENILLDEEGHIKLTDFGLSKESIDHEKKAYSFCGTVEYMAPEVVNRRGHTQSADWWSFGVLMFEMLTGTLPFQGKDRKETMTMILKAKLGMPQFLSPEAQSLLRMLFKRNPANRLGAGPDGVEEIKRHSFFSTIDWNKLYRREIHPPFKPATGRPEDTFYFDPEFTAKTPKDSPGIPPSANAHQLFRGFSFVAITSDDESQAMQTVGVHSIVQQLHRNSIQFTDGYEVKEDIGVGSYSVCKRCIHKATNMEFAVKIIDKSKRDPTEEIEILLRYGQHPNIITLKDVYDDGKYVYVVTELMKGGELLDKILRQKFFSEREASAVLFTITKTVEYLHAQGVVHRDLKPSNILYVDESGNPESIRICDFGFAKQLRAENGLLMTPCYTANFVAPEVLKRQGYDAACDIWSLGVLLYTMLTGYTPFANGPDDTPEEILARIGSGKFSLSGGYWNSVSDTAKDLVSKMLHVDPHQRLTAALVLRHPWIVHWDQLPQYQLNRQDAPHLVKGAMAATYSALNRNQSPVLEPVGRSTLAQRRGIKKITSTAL

Measured: Kd
Also: in the data inactive means no Kd found up to 30 µM.

Sequence of ATP-dependent RNA helicase DDX3X (O00571 whole entry): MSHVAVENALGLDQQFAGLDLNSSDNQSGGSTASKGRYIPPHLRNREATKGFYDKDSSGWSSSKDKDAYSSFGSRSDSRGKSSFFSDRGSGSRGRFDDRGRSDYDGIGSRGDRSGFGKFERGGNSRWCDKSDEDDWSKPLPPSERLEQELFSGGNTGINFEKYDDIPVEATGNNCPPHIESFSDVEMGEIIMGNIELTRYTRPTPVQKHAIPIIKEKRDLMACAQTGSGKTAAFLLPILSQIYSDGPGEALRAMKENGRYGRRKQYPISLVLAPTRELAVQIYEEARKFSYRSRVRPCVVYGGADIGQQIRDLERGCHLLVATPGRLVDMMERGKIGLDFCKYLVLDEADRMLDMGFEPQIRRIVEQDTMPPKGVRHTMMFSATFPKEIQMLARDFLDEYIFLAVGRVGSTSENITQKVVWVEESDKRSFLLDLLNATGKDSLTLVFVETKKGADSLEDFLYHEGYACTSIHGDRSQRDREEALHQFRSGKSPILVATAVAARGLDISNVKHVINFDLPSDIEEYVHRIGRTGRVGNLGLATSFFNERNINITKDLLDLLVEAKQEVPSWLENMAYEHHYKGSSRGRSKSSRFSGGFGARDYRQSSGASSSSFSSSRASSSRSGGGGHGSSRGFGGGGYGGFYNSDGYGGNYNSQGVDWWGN
Sequence of cAMP-dependent protein kinase type II-alpha regulatory subunit (P13861 whole entry): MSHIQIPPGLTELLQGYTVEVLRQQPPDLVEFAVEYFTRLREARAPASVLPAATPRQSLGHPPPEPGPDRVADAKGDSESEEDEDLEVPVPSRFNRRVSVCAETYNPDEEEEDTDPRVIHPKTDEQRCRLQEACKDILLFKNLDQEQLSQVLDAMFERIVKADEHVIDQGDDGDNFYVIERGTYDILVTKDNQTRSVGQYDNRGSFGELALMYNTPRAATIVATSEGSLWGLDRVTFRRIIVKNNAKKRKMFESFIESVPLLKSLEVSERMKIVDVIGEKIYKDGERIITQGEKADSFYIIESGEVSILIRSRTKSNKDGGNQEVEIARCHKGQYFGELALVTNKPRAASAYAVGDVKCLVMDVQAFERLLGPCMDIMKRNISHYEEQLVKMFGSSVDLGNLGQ
Sequence of Activin receptor type-2B (Q13705 whole entry): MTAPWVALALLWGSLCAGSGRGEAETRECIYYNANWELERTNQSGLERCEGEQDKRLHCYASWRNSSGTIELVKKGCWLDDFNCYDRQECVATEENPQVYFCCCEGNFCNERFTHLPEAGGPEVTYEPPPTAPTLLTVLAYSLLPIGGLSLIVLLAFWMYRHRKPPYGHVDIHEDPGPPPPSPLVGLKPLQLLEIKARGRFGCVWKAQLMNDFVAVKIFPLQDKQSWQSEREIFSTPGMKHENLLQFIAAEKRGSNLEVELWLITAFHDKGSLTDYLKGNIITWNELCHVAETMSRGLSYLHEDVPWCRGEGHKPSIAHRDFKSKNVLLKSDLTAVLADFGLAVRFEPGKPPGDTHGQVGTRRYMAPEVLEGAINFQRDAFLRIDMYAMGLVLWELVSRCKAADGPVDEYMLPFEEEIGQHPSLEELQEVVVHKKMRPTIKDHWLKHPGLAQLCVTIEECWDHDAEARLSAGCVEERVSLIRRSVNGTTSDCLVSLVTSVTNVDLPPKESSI

C[C@]1(O)C[C@@H](c2nc(-c3ccc4ccc(-c5ccccc5)nc4c3)c3c(N)nccn32)C1 [LINSITINIB]
inactive: [1] > 30 µM | Activin receptor type-2B > 30 µM | [2] > 30 µM | [3] > 30 µM | [4] > 30 µM | [5] > 30 µM | [6] > 30 µM | [7] > 30 µM

CC1(C)CNc2cc(NC(=O)c3cccnc3NCc3ccncc3)ccc21 [MOTESANIB]
inactive: [1] > 30 µM | [2] > 30 µM | [4] > 30 µM | Scaffold protein ILK > 30 µM | [7] > 30 µM

CN(c1ncccc1CNc1nc(Nc2ccc3c(c2)CC(=O)N3)ncc1C(F)(F)F)S(C)(=O)=O [PF-00562271]
inactive: [1] > 30 µM | Activin receptor type-2B > 30 µM | [2] > 30 µM | [3] > 30 µM | [4] > 30 µM | Scaffold protein ILK > 30 µM | [6] > 30 µM | [7] > 30 µM | [8] > 30 µM

CC(C)CC(=O)Nc1[nH]nc2c1CN(C(=O)C1CCN(C)CC1)C2(C)C [PHA-793887]
inactive: [1] > 30 µM | [9] > 30 µM | Activin receptor type-2B > 30 µM | [2] > 30 µM | [3] > 30 µM | [4] > 30 µM | [5] > 30 µM | Scaffold protein ILK > 30 µM | [7] > 30 µM | [8] > 30 µM

C=CC(=O)Nc1cccc(Nc2nc(Nc3ccc(N4CCN(C(C)=O)CC4)cc3OC)ncc2C(F)(F)F)c1 [ROCILETINIB]
inactive: [1] > 30 µM | [9] > 30 µM | Activin receptor type-2B > 30 µM | [3] > 30 µM | [4] > 30 µM | [5] > 30 µM | [6] > 30 µM | [7] > 30 µM | [8] > 30 µM

Cn1cnc2c(F)c(Nc3ccc(Br)cc3Cl)c(C(=O)NOCCO)cc21 [SELUMETINIB]
inactive: [1] > 30 µM | [2] > 30 µM | [4] > 30 µM | Scaffold protein ILK > 30 µM | [7] > 30 µM

CN1CCN(c2nc(C3=C(c4c[nH]c5ccccc45)C(=O)NC3=O)c3ccccc3n2)CC1 [SOTRASTAURIN]
inactive: [1] > 30 µM | [9] > 30 µM | Activin receptor type-2B > 30 µM | [2] > 30 µM | [3] > 30 µM | [4] > 30 µM | [6] > 30 µM | [7] > 30 µM | [8] > 30 µM

Cc1cc(C(=O)Nc2cc(Oc3ccc4nc(NC(=O)C5CC5)cn4n3)ccc2C)n(C)n1 [TAK-593]
inactive: [1] > 30 µM | [9] > 30 µM | Activin receptor type-2B > 30 µM | [2] > 30 µM | [3] > 30 µM | [4] > 30 µM | Scaffold protein ILK > 30 µM | [6] > 30 µM | [7] > 30 µM | [8] > 30 µM

COc1cc2c(N3CCN(C(=O)Nc4ccc(OC(C)C)cc4)CC3)ncnc2cc1OCCCN1CCCCC1 [TANDUTINIB]
inactive: [1] > 30 µM | [2] > 30 µM | [4] > 30 µM | Scaffold protein ILK > 30 µM | [7] > 30 µM

NC(=O)c1ccc(N(C(N)=O)c2c(F)cccc2F)nc1-c1ccc(F)cc1F [VX-702]
inactive: [1] > 30 µM | [9] > 30 µM | [2] > 30 µM | [3] > 30 µM | [4] > 30 µM | [5] > 30 µM | Scaffold protein ILK > 30 µM | [7] > 30 µM | [8] > 30 µM
